Laboratory results as given in paper PMC6024615, “Effect of Biliary Drainage on the Toxicity and Toxicokinetics of Amanita exitialis in Beagles” (Toxins, 2018).
Like-named read-outs stand apart in the source and are kept apart here.

What was measured:
[1] = Peptide toxins in the bile of beagles with biliary drainage; assay type: in vivo, beagle dogs; settings: for Accumulated amounts excreted in bile / percentage of total bile excretion, Accumulated amounts: 0–4 days; for ratio of peptide toxins in bile to excretion in urine and bile: mean ± SD
Experimental: The study was approved by National Institute of Occupational Health and Poison Control review board for animal experiments. Twenty-four male beagles (age, 8–10 months; weight, 10 ± 1 kg) were obtained from Beijing Institute of Xieerxin Biology Resource (Beijing, China). They were randomly divided into four groups of six animals each: control, biliary drainage, and 20 and 60 mg/kg with biliary drainage groups. The biliary drainage operation was conducted in all groups barring the control group. The dogs were dressed in homemade underwear, coats, and Elizabeth circles for a week to ensure pre-experimental acclimatization (Figure S8a–c). After determining the baseline values for biochemical indicators, the dogs were fasted for 24 h but received water ad libitum. They were anesthetized by intravenous administration of pentobarbital sodium (3%, 1 mL/kg) during the surgery. A temperature of 38–39 °C was maintained with a warming mat. After skin preservation and sterilization, the abdominal cavity was opened through the central abdomen. The abdomen was explored and blunt dissection of the common bile duct was performed (Figure S8d). The common bile duct and its branches were ligated from the intestinal side. A 7.0-Fr drainage catheter (COOK, Bloomington, IN, USA) was percutaneously inserted into the gallbladder, and a medical drainage bag was connected to the drainage catheter coming out of the abdominal cavity. Each opened layer, including the peritoneum, abdominal wall muscle, and skin, was closed with suture. The operative incision was protected with sterile gauze and a bandage, and the dogs were dressed in homemade underwear, coats, and Elizabeth circles. The drainage bag was placed in the pocket of the coat (Figure S8e). After the anesthetic wore off, the dogs were placed in cages, and food and water were provided ad libitum. The operative incision was sterilized with iodophor twice a day until stitches were removed six days after surgery. The drainage bag was replaced every day. On the eighth day after surgery, the 20 and 60 mg/kg with biliary drainage groups were orally administered a lyophilized powder of Amanita exitialis in starch capsules. In control and bile drainage group, the beagle dogs were fed with empty capsules. Immediately after dosing, the animals were placed in their cages, and food and water were provided ad libitum. Dogs were sacrificed with an overdose of sodium pentobarbital at the end of the experiment. All procedures were performed according to the ethical standards of the National Institutes of Health Guide for Animal Welfare and approved by the Institutional Animal Care and Use Committee (EAWE-2017-005).
Peptide toxins in blood and urine samples were analyzed as described previously. Bile samples from Days 0–1, Days 1–2, Days 2–3, and Days 3–4 were collected and stored in medical drainage bags and the bile volume was recorded. Plasma and urine samples were stored at 2–8 °C until analysis for peptide toxins.
α-Amanitin, β-amanitin, γ-amanitin, and phallacidin were used as the standard reference materials. Aliquots (0.2 mL) of bile samples were transferred into 2-mL polypropylene centrifuge tubes in duplicates. Next, 1 mL of acetonitrile was added to each tube. After vortex-mixing for 1 min, each sample was sonicated for 30 min and centrifuged at 11,200× g for 10 min at 4 °C. The supernatants were loaded on solid-phase extraction columns (Oasis PRiME HLB, 60 mg, 3 cc). The columns were then washed with 3 mL of methanol/ultrapure water (v/v: 5/95). The eluent was evaporated in a stream of nitrogen at room temperature. The dry residue was dissolved in 0.2 mL of ultrapure water and analyzed by UPLC-ESI-MS/MS.
UPLC and MS/MS parameters were as described in our previous study. The limit of detection and limit of quantitation of each toxin in the bile were 0.03 mg/kg and 0.5 mg/kg, respectively.

[2] = cited from earlier work
Experimental: The difference in detectable time in the urine can be explained by the low level of internal exposure (amatoxins in the blood). […] The daily amounts of peptide toxins excreted in urine in beagles without biliary drainage(mg). Time after α-Amanitin β-Amanitin Phallacidin ingestion 20 mg/kg 60 mg/kg 20 mg/kg 60 mg/kg 20 mg/kg 60 mg/kg group group group group group group 0-1d 0.0379 0.0593 0.0156 0.0251 0.0035 0.0088 (97.9%) (92.8%) (99.9%) (94.7%) (94.2%) (76%) 1-2d 0.0388 0.0618 0.01567 0.0255 0.0037 0.0110 (99.995%) (97.5%) (100%) (96.2%) (100%) (93%) 2-3d 0.0002 0.0626 0 0.0260 0 0.0115 (100%) (99.4%) (100%) (98.2%) (100%) (97.3%) 3-4d 0 0.063 ...

[3] = 0–1 days, 20 mg/kg with biliary drainage group
[4] = 0–1 days, 60 mg/kg with biliary drainage group
[5] = 20 mg/kg with biliary drainage group
[6] = 60 mg/kg with biliary drainage group
[7] = 1-2 d, 20 mg/kg with biliary drainage group
[8] = 1-2 d, 60 mg/kg with biliary drainage group
[9] = 1–2 days, 20 mg/kg with biliary drainage group
[10] = 1–2 days, 60 mg/kg with biliary drainage group
[11] = 2-3 d, 20 mg/kg with biliary drainage group
[12] = 2-3 d, 60 mg/kg with biliary drainage group
[13] = 2–3 days, 20 mg/kg with biliary drainage group
[14] = 2–3 days, 60 mg/kg with biliary drainage group
[15] = 3-4d, 20 mg/kg with biliary drainage group
[16] = 3-4d, 60 mg/kg with biliary drainage group
[17] = 3–4 days, 20 mg/kg with biliary drainage group
[18] = 3–4 days, 60 mg/kg with biliary drainage group

CC[C@H](C)[C@@H]1NC(=O)CNC(=O)[C@@H]2Cc3c([nH]c4cc(O)ccc34)[S@+]([O-])C[C@H](NC(=O)CNC1=O)C(=O)N[C@@H](CC(N)=O)C(=O)N1C[C@H](O)C[C@H]1C(=O)N[C@@H]([C@@H](C)[C@@H](O)CO)C(=O)N2 [α-amanitin]
detection rate of peptide toxins in bile ([1]; 0-1 d, 60 mg/kg with biliary drainage group): 83% | daily amount excreted in bile [1, 3]: 0.00007 mg | percentage of total bile excretion excreted daily [1, 3]: 100% | daily amount excreted in bile [1, 4]: 0.00061 mg | percentage of total bile excretion excreted daily [1, 4]: 100% | Accumulated amounts excreted in bile [1, 5]: 0.00007 mg | percentage of total bile excretion, Accumulated amounts [1, 5]: 100% | Accumulated amounts excreted in bile [1, 6]: 0.00061 mg | percentage of total bile excretion, Accumulated amounts [1, 6]: 100% | ratio of peptide toxins in bile to excretion in urine and bile [1, 5]: less than 10% | ratio of peptide toxins in bile to excretion in urine and bile ([1]; 20 mg/kg with biliary drainage group, listed as α-Amanitin): 1.3 ± 2.4% | ratio of peptide toxins in bile to excretion in urine and bile [1, 6]: less than 20% | ratio of peptide toxins in bile to excretion in urine and bile ([1]; 60 mg/kg with biliary drainage group, listed as α-Amanitin): 3.1 ± 2.5% | detection rate of peptide toxins in bile [1, 7]: 0% | toxin concentration in bile [1, 7]: 0 µg/L | detection rate of peptide toxins in bile [1, 8]: 0% | toxin concentration in bile [1, 8]: 0 µg/L | daily amount excreted in bile [1, 9]: 0(0%) mg | percentage of total bile excretion excreted daily [1, 9]: 0(0%) | daily amount excreted in bile [1, 10]: 0(0%) mg | percentage of total bile excretion excreted daily [1, 10]: 0(0%) | detection rate of peptide toxins in bile [1, 11]: 0% | toxin concentration in bile [1, 11]: 0 µg/L | detection rate of peptide toxins in bile [1, 12]: 0% | toxin concentration in bile [1, 12]: 0 µg/L | daily amount excreted in bile [1, 13]: 0(0%) mg | percentage of total bile excretion excreted daily [1, 13]: 0(0%) | daily amount excreted in bile [1, 14]: 0(0%) mg | percentage of total bile excretion excreted daily [1, 14]: 0(0%) | detection rate of peptide toxins in bile [1, 15]: 0% | toxin concentration in bile [1, 15]: 0 µg/L | detection rate of peptide toxins in bile [1, 16]: 0% | toxin concentration in bile [1, 16]: 0 µg/L | daily amount excreted in bile [1, 17]: 0(0%) mg | percentage of total bile excretion excreted daily [1, 17]: 0(0%) | daily amount excreted in bile [1, 18]: 0(0%) mg | percentage of total bile excretion excreted daily [1, 18]: 0(0%) | daily amount excreted in urine, without biliary drainage ([2]; 0-1d, 20 mg/kg group): 0.0379 mg | percentage in parentheses, urine, without biliary drainage ([2]; 0-1d, 20 mg/kg group): 97.9% | daily amount excreted in urine, without biliary drainage ([2]; 0-1d, 60 mg/kg group): 0.0593 mg | percentage in parentheses, urine, without biliary drainage ([2]; 0-1d, 60 mg/kg group): 92.8% | Accumulative amount excreted in urine, without biliary drainage ([2]; 20 mg/kg group): 0.039 mg | percentage in parentheses, Accumulative amount, urine, without biliary drainage ([2]; 20 mg/kg group): 100% | Accumulative amount excreted in urine, without biliary drainage ([2]; 20 mg/kg group, listed as α-Amanitin): 0.0390 mg | Accumulative amount excreted in urine, without biliary drainage ([2]; 60 mg/kg group): 0.0630 mg | percentage in parentheses, Accumulative amount, urine, without biliary drainage ([2]; 60 mg/kg group): 100% | percentage in parentheses, urine, without biliary drainage ([2]; 1-2d, 20 mg/kg group): 99.995% | daily amount excreted in urine, without biliary drainage ([2]; 1-2d, 60 mg/kg group): 0.0618 mg | percentage in parentheses, urine, without biliary drainage ([2]; 1-2d, 60 mg/kg group): 97.5% | daily amount excreted in urine, without biliary drainage ([2]; 2-3d, 20 mg/kg group): 0.0002 mg | percentage in parentheses, urine, without biliary drainage ([2]; 2-3d, 20 mg/kg group): 100% | daily amount excreted in urine, without biliary drainage ([2]; 2-3d, 60 mg/kg group): 0.0626 mg | percentage in parentheses, urine, without biliary drainage ([2]; 2-3d, 60 mg/kg group): 99.4% | daily amount excreted in urine, without biliary drainage ([2]; 3-4d, 20 mg/kg group): 0 mg | percentage in parentheses, urine, without biliary drainage ([2]; 3-4d, 20 mg/kg group): 100% | daily amount excreted in urine, without biliary drainage ([2]; 3-4d, 60 mg/kg group): 0.0630 mg | percentage in parentheses, urine, without biliary drainage ([2]; 3-4d, 60 mg/kg group): 100%
